From the supplement of paper PMC3974653
Where a name gives a salt, the structure may show the parent alone.

System: MTT (mouse pheochromocytoma)
Experiment: IC50 of cell viability (ATP content)
Conditions: (24 or 48 h)
In short: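 MTT mouse pheochromocytoma cells in white 1536-well plates were treated for 24 or 48 hrs with library compounds at 8 final concentrations from 0.5 nM to 46 µM. ATP content was measured with CellTiter-Glo luminescence, using positive-control wells as 100% and DMSO wells as 0%. IC50 came from a four-parameter logistic fit.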

| Compound | IC50 of cell viability [µM] |
| --- | --- |
| CC(C)c1nc(N(C)[S+](C)(=O)[O-])nc(-c2ccc(F)cc2)c1/C=C/C(O)CC(O)CC(=O)O (centres undefined) [ROSUVASTATIN] | > 46 |
| CCCN(CCc1cccs1)[C@H]1CCc2c(O)cccc2C1 [ROTIGOTINE] | > 46 |
| CC(=O)OCC(=O)NCCCOc1cccc(CN2CCCCC2)c1 [ROXATIDINE ACETATE HYDROCHLORIDE] | > 46 |
| NC(=O)c1cn(Cc2c(F)cccc2F)nn1 [RUFINAMIDE] | > 46 |
| CN1CCN(CC1)C2=C(F)C=C3C(=O)\C(=C/N4CCSC2=C34)C(O)=O [RUFLOXACINUM] | > 46 |
| CC(=O)SC[C@@H](Cc1ccccc1)C(=O)NCC(=O)OCc1ccccc1 [Racecadotril] | > 46 |
| O=C(Nc1ccc(Oc2ccc(Cl)cc2)c(Cl)c1)c1cc(I)cc(I)c1O [Rafoxanide] | > 46 |
| O=C(c1ccc(OCCN2CCCCC2)cc1)c1c(-c2ccc(O)cc2)sc2cc(O)ccc12 [Raloxifene hydrochloride] | > 46 |
| CN\1C(=O)C(=C(\N=C1C(C)(C)NC(=O)C2=NN=C(C)O2)C(=O)NCC3=CC=C(F)C=C3)/O [Raltegravir] | > 46 |
| CN(CC1=CC2=C(N\C(=N/C2=O)C)C=C1)C3=CC=C(S3)C(=O)N[C@@H](CCC(O)=O)C(O)=O [Raltitrexed] | > 46 |
| CCOC(=O)[C@H](CCc1ccccc1)N[C@@H](C)C(=O)N1[C@@H](C(=O)O)C[C@H]2CCC[C@@H]21 [Ramipril] | > 46 |
| CCOc1ccccc1OC(c1ccccc1)C1CNCCO1 (centres undefined) [Reboxetine mesylate] | > 46 |
| CC(Cc1ccccc1)(NC(=O)CN)c1ccccc1 (centres undefined) [Remacemide hydrochloride] | > 46 |
| CCOc1cc(CC(=O)N[C@@H](CC(C)C)c2ccccc2N2CCCCC2)ccc1C(=O)O [Repaglinide] | > 46 |
| COC(=O)[C@@H]1[C@H]2C[C@H]3c4[nH]c5cc(OC)ccc5c4CCN3C[C@@H]2C[C@@H](OC(=O)/C=C\c2cc(OC)c(OC)c(OC)c2)[C@@H]1OC [Rescinnamin] | > 46 |
| COC(=O)[C@H]1[C@H]2C[C@@H]3c4[nH]c5cc(OC)ccc5c4CCN3C[C@H]2C[C@@H](OC(=O)c2cc(OC)c(OC)c(OC)c2)[C@@H]1OC [Reserpine] | > 46 |
| Oc1cccc(O)c1 [Resorcinol] | > 46 |
| Oc1ccc(/C=C\c2cc(O)cc(O)c2)cc1 [Resveratrol] | > 46 |
| CC1=C(/C=C/C(C)=C/C=C/C(C)=C/CO)C(C)(C)CCC1 [Retinol] | > 46 |
| CC(=O)OC/C=C(C)/C=C/C=C(C)/C=C/C1=C(C)CCCC1(C)C [Retinyl acetate] | > 46 |
| CCCCCCCCCCCCCCCC(=O)OC/C=C(C)/C=C/C=C(C)/C=C/C1=C(C)CCCC1(C)C [Retinyl palmitate] | > 46 |
| CCCCCCC(O)C/C=C\CCCCCCCC(=O)O (centres undefined) [Ricinoleic acid] | > 46 |

| Compound | IC50 of cell viability [µM] |
| --- | --- |
| CO[C@H]1/C=C/O[C@@]2(C)Oc3c(C)c(O)c4c(c3C2=O)C2=NC3(CCN(CC(C)C)CC3)NC2=C(NC(=O)/C(C)=C\C=C\[C@H](C)[C@H](O)[C@@H](C)[C@@H](O)[C@@H](C)[C@H](OC(C)=O)[C@@H]1C)C4=O [Rifabutin] | > 46 |
| CC(N)C12CC3CC(CC(C3)C1)C2 (centres undefined) [Rimantadine hydrochloride] | > 46 |
| CCC(=O)[C@@]1(C)[C@H](C)C[C@@H]2[C@@H]3CC\C4=C\C(=O)\C=C/[C@@]4(C)[C@H]3[C@H](O)C[C@@]12C [Rimexolone] | > 46 |
| CCCCCOc1ccc(C2SC(=O)NC2=O)cc1OCC (centres undefined) [Risarestat] | > 46 |
| CCCOC(=O)c1ccc(N)cc1 [Risocaine] | > 46 |
| CC/1=C(\CCN2CCC(CC2)=C(C3=CC=C(F)C=C3)C4=CC=C(F)C=C4)C(=O)N/5\C=C/SC5=N1 [Ritanserin] | > 46 |
| C[C@H](NCCc1ccc(O)cc1)[C@@H](O)c1ccc(O)cc1 [Ritodrine hydrochloride] | > 46 |
| CC(C)c1nc(CN(C)C(=O)NC(C(=O)NC(Cc2ccccc2)CC(O)C(Cc2ccccc2)NC(=O)OCc2cncs2)C(C)C)cs1 (centres undefined) [Ritonavir] | > 46 |
| CC(C)c1nc(CN(C)C(=O)N[C@H](C(=O)N[C@@H](Cc2ccccc2)C[C@H](O)[C@H](Cc2ccccc2)NC(=O)OCc2cncs2)C(C)C)cs1 [Ritonavir] | > 46 |
| Cc1cccc(C)c1N(CCCc1cccnc1)C(=O)[C@@H](C)N [Ro 22-9194] | > 46 |
| c1ccc(C2(N3CCCC3)CCCCC2)cc1 [Rolicyclidine] | > 46 |
| COc1ccc([C@@H]2CNC(=O)C2)cc1OC1CCCC1 [Rolipram] | > 46 |
| CN(C)[C@@H]\1[C@@H]2C[C@H]3\C(=C(\O)[C@@]2(O)C(=O)\C(=C1O)C(=O)NCN4CCCC4)C(=O)C5=C(C=CC=C5O)[C@@]3(C)O [Rolitetracycline] | > 46 |
| Cc1nc(-c2ccc(Cl)cc2)oc1COC(C)(C)C(=O)O [Romazarit] | > 46 |
| CC(=O)O[C@H](C)OC(=O)[C@@H](C)c1ccc(-c2ccccc2)c(F)c1 [Ropiopn] | > 46 |
| CC[C@H]1OC(=O)C[C@@H](O)[C@H](C)[C@@H](O[C@@H]2O[C@H](C)C[C@H](N(C)C)[C@@H]2O)[C@@H](CC=O)C[C@@H](C)C(=O)/C=C\[C@]2(C)O[C@H]2[C@@H]1C [Rosaramicin] | > 46 |
| O=C([O-])c1c(Cl)c(Cl)c(Cl)c(Cl)c1-c1c2cc(I)c(=O)c(I)c-2oc2c(I)c([O-])c(I)cc12 [Rose Bengal sodium] | > 46 |
| O=[N+]([O-])c1cc([As](=O)(O)O)ccc1O [Roxarsone] | > 46 |
| OC1=CC2=C([NH]C=C2CCCCN3CC\C(=C/C3)C4=CC=CC=C4)C=C1 [Roxindole hydrochloride] | > 46 |
| CC[C@@H]1OC(=O)[C@H](C)[C@H](O[C@H]2C[C@](C)(OC)[C@H](O)[C@H](C)O2)[C@H](C)[C@H](O[C@@H]2O[C@@H](C)C[C@@H](N(C)C)[C@H]2O)[C@](C)(O)C[C@H](C)/C(=N/OCOCCOC)[C@H](C)[C@H](O)[C@]1(C)O [Roxithromycin] | > 46 |
| CC[C@H]1OC(=O)[C@H](C)[C@@H](OC2CC(C)(OC)C(O)C(C)O2)[C@H](C)[C@@H](OC2OC(C)CC(N(C)C)C2O)[C@](C)(O)C[C@@H](C)/C(=N\OCOCCOC)[C@H](C)[C@@H](O)[C@]1(C)O (some centres undefined) [Roxithromycin] | > 46 |
| C[C@@H]1O[C@@H](OC[C@H]2O[C@@H](Oc3c(-c4ccc(O)c(O)c4)oc4cc(O)cc(O)c4c3=O)[C@H](O)[C@@H](O)[C@@H]2O)[C@H](O)[C@H](O)[C@H]1O [Rutin] | > 46 |

| Compound | IC50 of cell viability [µM] |
| --- | --- |
| C[C@H](N)C(=O)c1ccccc1 [S(-)-Cathinone hydrochloride] | > 46 |
| CCN(CC)C(=O)N[C@@H]1C=C2c3cccc4[nH]cc(c34)C[C@H]2N(C)C1 [S(-)-LISURIDE] | > 46 |
| CCN1CCC[C@H]1CNC(=O)c1c(O)c(Cl)cc(Cl)c1OC [S(-)-RACLOPRIDE] | > 46 |
| CCc1cc(Cl)c(OC)c(C(=O)NC[C@H]2CCCN2CC)c1O [S(-)Eticlopride hydrochloride] | > 46 |
| CN[C@H](C)Cc1ccccc1 [S-(+)-Methamphetamine] | > 46 |
| C=CCC1([C@@H](C)CCC)C(=O)NC(=O)NC1=O [S-(-)-Secobarbital] | > 46 |
| CCOC(=O)/C=C(C)/C=C/CC(C)CCCC(C)C (centres undefined) [S-HYDROPRENE] | > 46 |
| CC(/C=C/C=C(\C)C(=O)O[C@@H]1O[C@H](CO[C@@H]2O[C@H](CO)[C@@H](O)[C@H](O)[C@H]2O)[C@@H](O)[C@H](O)[C@H]1O)=C\C=C\C=C(C)\C=C\C=C(/C)C(=O)O[C@@H]1O[C@H](CO[C@@H]2O[C@H](CO)[C@@H](O)[C@H](O)[C@H]2O)[C@@H](O)[C@H](O)[C@H]1O [SAFFRON] | > 46 |
| CC(CCc1ccc2c(c1)OCO2)NN (centres undefined) [SAFRAZINE HYDROCHLORIDE] | > 46 |
| CC(C)(C)NCC(O)c1ccc(O)c(CO)c1 (centres undefined) [SALBUTAMOL] | > 46 |
| OCc1ccccc1O [SALICYL ALCOHOL] | > 46 |
| NC(=O)c1ccccc1O [SALICYLAMIDE] | > 46 |
| O=C(Oc1ccccc1C(=O)O)c1ccccc1O [SALSALATE] | > 46 |
| Cl.OC(=O)C/1=C/N(C2=CC=C(F)C=C2)C3=C(C=C(F)C(=C3)N4CCNCC4)C1=O [SARAFLOXACIN HYDROCHLORIDE] | > 46 |
| CNCC(=O)NC(CCCNC(=N)N)C(=O)NC(C(=O)NC(Cc1ccc(O)cc1)C(=O)NC(C(=O)NC(Cc1cnc[nH]1)C(=O)N1CCCC1C(=O)NC(C)C(=O)O)C(C)C)C(C)C (centres undefined) [SARALASIN ACETATE] | > 46 |
| COc1cccc(CCc2ccccc2OCC(CN(C)C)OC(=O)CCC(=O)O)c1 (centres undefined) [SARPOGRELATE HYDROCHLORIDE] | > 46 |
| Cc1ccccc1/N=N/c1ccc(/N=N/c2c(O)ccc3ccccc23)c(C)c1 [SCARLET RED] | > 46 |
| C=C1CC[C@H](O)C/C1=C/C=C1\CCC[C@]2(C)[C@@H]([C@H](C)CC[C@@H](O)C(C)(C)O)CC[C@@H]12 [SECALCIFEROL] | > 46 |
| Cc1ncc([N+](=O)[O-])n1CC(C)O (centres undefined) [SECNIDAZOLE] | > 46 |
| O=C/1O[C@@]23CC(/C=C\C2=C1)N4CCCCC34 (some centres undefined) [SECURININE] | > 46 |
